Assay results as given in patent US9550792B2, “Polycyclic substituted pyrazole kinase activity inhibitors and use thereof” (priority 2013, dated 2017).
Values after ≈ are worked out from the molar mass of the structure shown. Read-outs that look alike come from different tables or passages of the source.

How the values were obtained:
Aurora A = target: T1, Aurora A (Homo sapiens, UniProt O14965); test: Inhibitory activity to Aurora A (FRET); format: biochemical; conditions: for inhibition at 1 µM: read-out: Aurora A inhibition % (1 × 10^−6 mol/L)
T1 construct: purchased
T1 sequence (O14965 1-403): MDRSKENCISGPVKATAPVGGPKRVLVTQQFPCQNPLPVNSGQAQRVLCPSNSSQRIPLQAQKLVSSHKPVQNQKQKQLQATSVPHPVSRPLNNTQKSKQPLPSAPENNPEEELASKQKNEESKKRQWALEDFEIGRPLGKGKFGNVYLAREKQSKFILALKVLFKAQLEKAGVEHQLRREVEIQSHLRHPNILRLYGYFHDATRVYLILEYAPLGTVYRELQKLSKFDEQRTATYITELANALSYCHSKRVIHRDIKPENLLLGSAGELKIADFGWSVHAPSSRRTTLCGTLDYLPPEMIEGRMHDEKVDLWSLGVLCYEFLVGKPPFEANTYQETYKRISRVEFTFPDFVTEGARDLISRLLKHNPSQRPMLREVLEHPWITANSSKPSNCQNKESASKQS
Experimental: The inhibitory activities of the synthesized compounds for Aurora A is determined by fluorescence resonance energy transfer (FRET) and were compared with the positive control drug so as to screen the compounds with better activities. Aurora A was purchased in the form of a kit or obtained through purification. Procedures: Aurora A is diluted to a suitable concentration with kinase diluent. The kinase reaction mixture contains Aurora A, peptide substrate, HEPES (pH7.5), BRIJ-35, MgCl2 and EDTA. Aurora A phospho-peptide substrate is used as the control of 100% phosphorylation and ATP-free as the control of 0% phosphorylation. After 1 h, the diluted Development Reagent A is added into the reaction system. Then the reaction is allowed to proceed for 1 h and then quenched with Stop Reagent. The excitation wavelength is 400 nm and the fluorescence intensity is detected at 445 nm (coumarin) and 520 nm (fluorescein). The inhibitions of the tested compounds are calculated according to the formula.

[1] = system: liver cancer cell line 7721; test: Anti-tumor activity in vitro, MTT method; format: cell-based; conditions: MTT, 48 h; read-out: 7721 (IC50/μM)
CDK2/A = target: T2, CDK2/A (Homo sapiens, UniProt P24941); test: Inhibitory activity to CDK2 (FRET); format: biochemical; conditions: for inhibition at 1 µM: read-out: CDK2 inhibition % (1 × 10^−6 mol/L)
T2 construct: purchased
Experimental: CDK2/A was purchased in the form of a kit or obtained through purification.
Procedures: CDK2/A is diluted to a suitable concentration with kinase diluent. The kinase reaction mixture contains CDK2/A, peptide substrate, HEPES (pH7.5), BRIJ-35, MgCl2 and EDTA. CDK2 phospho-peptide substrate is used as the control of 100% phosphorylation and ATP-free as the control of 0% phosphorylation. After 1 h, the diluted Development Reagent A is added into the reaction system. Then the reaction is allowed to proceed for 1 h and then quenched with Stop Reagent. […] The inhibitions of the tested compounds are calculated according to the formula.

[2] = system: colon cancer cell line HCT116; test: Anti-tumor activity in vitro, MTT method; format: cell-based; conditions: MTT, 48 h, first cell table, read-out: HCT-116 (IC50/μM)
lung cancer cell H1299 = test: Anti-tumor activity in vitro, MTT method; format: cell-based; conditions: MTT, 48 h, read-out: H1299 (IC50/μM)
Phytophthora infestans = format: in vivo; parameters: concentration or dose not given beside the values
Cryptococcus neoformans = test: Antifungal activity, modified broth microdilution; format: cell-based; conditions: 48 hours at 35, approximately 50% reduction of growth; for MIC: Cryptococcus neoformans
Experimental: (§1) The test microorganisms are maintained on Sabourahd Dextrose Agar slant at 4[…]. Singlet suspension of each microorganism is prepared by growing the yeast overnight at 27[…] on a rotating drum in yeast-nitrogen base broth (YNB) with amino acids (Difco, Detroit, Mich.), (pH 7.0) and 0.05 morpholine propanesulphonic acid (MOPS). […] The activity of the test compound is determined using a modified broth microdilution technique. […] Well 12 serves as a growth control. […] Inoculated plate is incubated for 48 hours at 35 °C. […] Minimal Cytolytic Concentration (MCC) is determined by subculturing all wells from the 96-well plate onto a Sabourahd Dextrose Agar (SDA) plate, incubating for 1-2 days at 35 °C, and then checking viability.

Candida parapsilosis = test: Antifungal activity, modified broth microdilution; format: cell-based; conditions: 48 hours at 35, approximately 50% reduction of growth; for MIC: Lodderomyces parapsilosis
Experimental: as §1

Candida tropicalis = test: Antifungal activity, modified broth microdilution; format: cell-based; conditions: 48 hours at 35, approximately 50% reduction of growth; for MIC: Candida tropicalis
Experimental: as §1

[3] = system: Candida albicans - ATCC 36082; test: Antifungal activity, modified broth microdilution; format: cell-based; conditions: 48 hours at 35, approximately 50% reduction of growth; for MIC: Candida albicans, ATCC36082
Experimental: as §1

| SMILES | inhibition at 1 µM (Aurora A) [%] | inhibition at 1 µM (CDK2/A) [%] | Severity of tomato leaf blight (Phytophthora infestans; 0.0001 (unit not given)) | Severity of tomato leaf blight (Phytophthora infestans; 0.001 (unit not given)) | Severity of tomato leaf blight (Phytophthora infestans; 0.01 (unit not given)) | Severity of tomato leaf blight (Phytophthora infestans; 0.1 (unit not given)) | melting point [°C] | Aurora A inhibition % (1 × 10^−6 mol/L) (Aurora A) [%] | CDK2 inhibition % (1 × 10^−6 mol/L) (CDK2/A) [%] | other results |
| --- | --- | --- | --- | --- | --- | --- | --- | --- | --- | --- |
| O=C(Nc1c[nH]nc1-c1nc2ccc(CN3CCOCC3)cc2[nH]1)NC1CC1 [AT-9283, reference compound] | 77.4 | 39.7 |  |  |  |  |  |  |  | IC50 [1]: 61.2 µM; IC50 ([2]; Homo sapiens, HCT-116): 21.2 µM; IC50 (lung cancer cell H1299; Homo sapiens, NCI-H1299): 10.8 µM |
| CN1CCN(Cc2ccc(NC(=O)c3n[nH]cc3Nc3ncnc4ccsc34)cc2)CC1 [Compound I-9, 4-(4-thieno[3,2-d]pyrimidinylamino)-N-(4-((4-methyl-1-piperazinyl)methyl)phenyl)-1H-3-pyrazole carboxamide] | 67.6 | 65 | ++ (15-40% blight) | ++ (15-40% blight) | − | − | > 280 |  |  | MIC (Cryptococcus neoformans): 15.6 µg/mL (≈ 34.7 µM); MIC (Candida parapsilosis): 8.7 µg/mL (≈ 19.4 µM); MIC (Candida tropicalis): 10.7 µg/mL (≈ 23.9 µM); MIC [3]: 12.7 µg/mL (≈ 28.4 µM) |
| Cc1c[nH]c2ncnc(Nc3c[nH]nc3C(=O)Nc3ccc(CN4CCN(C)CC4)cc3)c12 [Compound I-15, 4-(4-(5-methyl-7H-pyrrolo[2,3-d]pyrimidinyl)amino)-N-(4-((4-methyl-1-piperazinyl)methyl)phenyl)-1H-3-pyrazolecarboxamide] |  |  | ++ (15-40% blight) | ++ (15-40% blight) | + (0-15% blight) | − |  | 57.43 | 73.16 | Cryptococcus neoformans MIC (Cryptococcus neoformans): 9.40 µg/mL; Candida parapsilosis MIC (Candida parapsilosis): 5.78 µg/mL; Candida tropicalis MIC (Candida tropicalis): 5.00 µg/mL; Candida albicans - ATCC 36082 MIC [3]: 6.77 µg/mL |
| Cc1c[nH]c2ncnc(Nc3c[nH]nc3C(=O)Nc3ccc(CN4CCOCC4)cc3)c12 [Compound I-16, 4-(4-(5-methyl-7H-pyrrolo[2,3-d]pyrimidinyl)amino)-N-(4-((4-morpholinyl)methyl)phenyl)-1H-3-pyrazolecarboxamide] |  |  |  |  |  |  |  | 56.18 | 50.49 | IC50 [1]: 54.2 µM; IC50 [2]: 32.3 µM; IC50 (lung cancer cell H1299): 89 µM |
| CN1CCN(Cc2ccc(NC(=O)c3n[nH]cc3Nc3ncnc4cc[nH]c34)cc2)CC1 [Compound I-17, 4-(4-(5H-pyrrolo[3,2-d]pyrimidinyl)amino)-N-(4-((4-methyl-1-piperazinyl)methyl)phenyl)-1H-3-pyrazolecarboxamide] |  |  | +++ (40-60% blight) | ++ (15-40% blight) | + (0-15% blight) | − |  | 62.17 | 65.96 | Cryptococcus neoformans MIC (Cryptococcus neoformans): 7.99 µg/mL; Candida parapsilosis MIC (Candida parapsilosis): 2.76 µg/mL; Candida tropicalis MIC (Candida tropicalis): 4.70 µg/mL; Candida albicans - ATCC 36082 MIC [3]: 9.49 µg/mL |
| Cc1cc2ncnc(Nc3c[nH]nc3C(=O)Nc3ccc(CN4CCN(C)CC4)cc3)c2[nH]1 [Compound I-19, 4-(4-(6-methyl-5H-pyrrolo[3,2-d]pyrimidinyl)amino)-N-(4-((4-methyl-1-piperazinyl)methyl)phenyl)-1H-3-pyrazolecarboxamide] |  |  | ++++ (>60% blight) | ++ (15-40% blight) | + (0-15% blight) | − |  | 70.28 | 65.01 | Cryptococcus neoformans MIC (Cryptococcus neoformans): 12.86 µg/mL; Candida parapsilosis MIC (Candida parapsilosis): 6.45 µg/mL; Candida tropicalis MIC (Candida tropicalis): 8.58 µg/mL; Candida albicans - ATCC 36082 MIC [3]: 11.80 µg/mL |
| CN1CCN(Cc2ccc(NC(=O)c3n[nH]cc3Nc3ncnc4ccoc34)cc2)CC1 [Compound I-23, 4-(4-furo[3,2-d]pyrimidinylamino)-N-(4-((4-methyl-1-piperazinyl)methyl)phenyl)-1H-3-pyrazolecarboxamide] | 59.7 | 60.6 | +++ (40-60% blight) | ++ (15-40% blight) | − | − | 277 to 279 |  |  | MIC (Cryptococcus neoformans): 5.82 µg/mL (≈ 13.5 µM); MIC (Candida parapsilosis): 4.32 µg/mL (≈ 9.99 µM); MIC (Candida tropicalis): 3.24 µg/mL (≈ 7.49 µM); MIC [3]: 2.92 µg/mL (≈ 6.75 µM) |
| CN1CCN(Cc2ccc(NC(=O)c3n[nH]cc3Nc3nccc4sccc34)cc2)CC1 [Compound I-25, 4-(4-thieno[3,2-c]pyridylamino)-N-(4-((4-methyl-1-piperazinyl)methyl)phenyl)-1H-3-pyrazolecarboxamide] | 59.7 | 59.5 | ++ (15-40% blight) | ++ (15-40% blight) | + (0-15% blight) | − | 268 to 270 |  |  | MIC (Cryptococcus neoformans): 2.83 µg/mL (≈ 6.32 µM); MIC (Candida parapsilosis): 0.96 µg/mL (≈ 2.14 µM); MIC (Candida tropicalis): 1.08 µg/mL (≈ 2.41 µM); MIC [3]: 3.38 µg/mL (≈ 7.55 µM) |
| CN1CCN(Cc2ccc(NC(=O)c3n[nH]cc3Nc3nccc4ccoc34)cc2)CC1 [Compound I-37, 4-(7-furo[2,3-c]pyridylamino)-N-(4-((4-methyl-1-piperazinyl)methyl)phenyl)-1H-3-pyrazolecarboxamide] | 59.6 | 72.2 |  |  |  |  | 258 to 261 |  |  |  |
| O=C(Nc1ccc(CN2CCOCC2)cc1)c1n[nH]cc1Nc1nccc2ccoc12 [Compound I-38, 4-(7-furo[2,3-c]pyridylamino)-N-(4-((4-morpholinyl)methyl)phenyl)-1H-3-pyrazolecarboxamide] | 51 | 64.8 |  |  |  |  | 268 to 272 |  |  |  |
| O=C(Nc1ccc(CN2CCOCC2)cc1)c1n[nH]cc1Nc1ccnc2ccoc12 [Compound I-40, 4-(7-furo[3,2-b]pyridylamino)-N-(4-((4-morpholinyl)methyl)phenyl)-1H-3-pyrazolecarboxamide] | 40.7 | 20.2 |  |  |  |  | 275 to 278 |  |  |  |
| CN1CCN(Cc2ccc(NC(=O)c3n[nH]cc3Nc3ccnc4occc34)cc2)CC1 [Compound I-41, 4-(4-furo[2,3-b]pyridylamino)-N-(4-((4-methyl-1-piperazinyl)methyl)phenyl)-1H-3-pyrazolecarboxamide] | 42.6 | 56.2 |  |  |  |  | 273 to 276 |  |  |  |
| O=C(Nc1ccc(CN2CCOCC2)cc1)c1n[nH]cc1Nc1ccnc2occc12 [Compound I-42, 4-(4-furo[2,3-b]pyridylamino)-N-(4-((4-morpholinyl)methyl)phenyl)-1H-3-pyrazolecarboxamide] | 51.8 | 54.2 |  |  |  |  | 269 to 271 |  |  |  |
